How the values were obtained:
Panc02 = test: Cell Titer-Glo viability, Pancreatic adenocarcinoma; type: cell-based
Method: (§1) OGM2 kills wide variety of cancer cell types. Cell sensitivity can be classified in to Very Sensitive (LC50<2 μM), Sensitive (LC50=2 to 10 μM), Mildly Sensitive (LC50>10 μM), and Refractory (no killing at 10 μM). The listed established cell were incubated with OGM2 at 2 μM or 10 μM for 72 hours under standard cell culture conditions, and relative cell number was assessed using Cell Titer-Glo Luminescent Cell Viability Assay (Promega™) following the manufacturer's instructions. Luminescence was determined using a Cytation 5 reader and Gen5 software package (BioTek™).
(§2) Cancer cells, which are very sensitive to killing by OGM2 (LCs <2 μM), with reported mRNA expression of GPR68 and the related proton sensing receptor GPR4. LC50's (concentrations causing 50% lethality) were determined using CellTiter-Glo (Promega™, G7570). Cells were plated in 12-well plates (CELLTREAT Scientific Products, 229112) in 1 ml of DMEM with high glucose, GlutaMAX, HEPES, or RPMI 1640 with Penicillin-Streptomycin (ThermoFisher™, 10564029, 11875119 and 15140122) and 10% FBS. Cells were incubated overnight at 37° C. in 5% CO2. Then 1 mL of fresh media was added with DMSO, OGM, or positive control (Erastin; APExBIO Technology, LLC, B1524) and cells incubated for 3 days. On the third day, all media was removed, cells were rinsed with 1×PBS, PBS was removed, and 200 μL of 1× Passive Lysis Buffer (Promega™, E1941) was added to each well. […]. Subsequently, 20 μL of lysate was added to 100 μL CellTiter-Glo™ reagent on a LUMITRAC 200 plate (Greiner™ bio-one, 82050-726). Plates were briefly spun down and read on a GloMax-Multi Detection System (Promega™).
(§3) The cells listed in the tables above were incubated with OGM2 at 2 μM or 10 μM for 72 hours under standard cell culture conditions, and relative cell number was assessed using Cell Titer-Glo Luminescent Cell Viability Assay (Promega™) following the manufacturer's instructions. Luminescence was determined using a Cytation 5 reader and Gen5 software package (BioTek™). RNA expression of GPR68 and GPR4 in the corresponding cancer cell lines are listed, according to the publicly available The Human Protein Atlas version 22.0 and Ensembl version 103.38 (see proteinatlas.org). The consensus normalized expression value (“nTPM”=normalize transcript per million) was calculated as the maximum nTPM value for each gene in the two data sources.

BxPC-3 = test: as above; type: cell-based
Method: as §1, §2, §3

HKSA-induced ALI = test: HKSA-induced acute lung injury; type: in vivo, C57Bl mice; conditions: OGM2 40 mg/kg
Method: FIG. 37A through FIG. 37D: OGM2 attenuates HKSA- and LPS-induced acute lung injury (ALI) in vivo. FIG. 37A: GPR68 mRNA is markedly elevated in lungs, heart and brain of HKSA-challenged (5×10^7/kg, i/n, 18 hr) C57Bl mice). FIG. 37B: LPS (0.7 mg/kg intratracheal) and […] ALI in mice markedly increases mRNA expression of GPR68, relative to GPR4, GPR65, and GPR132; *p<0.01 vs. vehicle; n=3.

Lpa1 = Lpa1 (Homo sapiens, UniProt Q92633); test: Lpa1 activity of OGM analogs (Table 5); type: cell-based
Method: GPCR profiling assays were performed by Millipore (St. Louis, MO) using in cells expressing Gα15, a promiscuous G protein that enhances GPCR coupling to downstream Ca2+ signaling pathways. KinomeScan was conducted by DiscoveRx (Fremont, CA). Since GPCRs represent >30% of targets for FDA-approved small molecules and are known to modulate cell migration, activity against 158 GPCRs was assessed based on their chemical structures. GPCRs (158) were tested for agonist and antagonist activity at 10 μM. […] Chemical segregation analysis of zebrafish phenotype was conducted to further identify the inhibitory activity responsible for the zebrafish phenotype. […] The identities of the R groups in Formula A are shown below in Table 5.

EGFR(G719C) = biological target: T1, EGFR(G719C) (Homo sapiens, UniProt P00533, G719C); test: KinomeScan; type: binding; conditions: read-out: % Control
T1 construct: purchased DiscoveRx (Fremont, CA), KinomeScan service

ERK1 = biological target: T2, ERK1 (Homo sapiens, UniProt P27361); test: KinomeScan; type: binding; conditions: read-out: % Control
T2 construct: purchased DiscoveRx (Fremont, CA)

TRH = biological target: T3, TRH (Homo sapiens, UniProt P34981); test: GPCR Profiler; type: cell-based
T3 construct: host or cells: Chem-1 cells with Gα15

[1] = biological target: T4, ABL1(T315I)-phosphorylated (Homo sapiens, UniProt P00519, T315I); test: KinomeScan; type: binding; conditions: read-out: % Control
T4 construct: purchased DiscoveRx

PIK3CA(C420R) = biological target: T5, PIK3CA(C420R) (Homo sapiens, UniProt P42336, C420R); test: KinomeScan; type: binding; conditions: read-out: % Control
T5 construct: purchased DiscoveRx (Fremont, CA)

CysLT1 = biological target: T6, CysLT1 (Homo sapiens, UniProt Q9Y271); test: GPCR Profiler; type: cell-based
T6 construct: host or cells: Chem-1 cells with Gα15

FGFR3(G697C) = biological target: T7, FGFR3(G697C) (Homo sapiens, UniProt P22607, G697C); test: KinomeScan; type: binding; conditions: read-out: % Control
T7 construct: purchased DiscoveRx (Fremont, CA)

ANKK1 = biological target: T8, ANKK1 (Homo sapiens, UniProt Q8NFD2); test: KinomeScan; type: binding; conditions: read-out: % Control
T8 construct: purchased DiscoveRx (Fremont, CA)

FGFR4 = biological target: T9, FGFR4 (Homo sapiens, UniProt P22455); test: KinomeScan; type: binding; conditions: read-out: % Control
T9 construct: purchased DiscoveRx (Fremont, CA)

RIOK1 = biological target: T10, RIOK1 (Homo sapiens, UniProt Q9BRS2); test: KinomeScan; type: binding; conditions: read-out: % Control
T10 construct: purchased DiscoveRx (Fremont, CA)

CXCR2 = biological target: T11, CXCR2 (Homo sapiens, UniProt P25025); test: GPCR Profiler; type: cell-based
T11 construct: host or cells: Chem-1 cells with Gα15

MET = biological target: T12, MET (Homo sapiens, UniProt P08581); test: KinomeScan; type: binding; conditions: read-out: % Control
T12 construct: purchased DiscoveRx (Fremont, CA)

T11 sequence (P25025 whole entry, species assumed): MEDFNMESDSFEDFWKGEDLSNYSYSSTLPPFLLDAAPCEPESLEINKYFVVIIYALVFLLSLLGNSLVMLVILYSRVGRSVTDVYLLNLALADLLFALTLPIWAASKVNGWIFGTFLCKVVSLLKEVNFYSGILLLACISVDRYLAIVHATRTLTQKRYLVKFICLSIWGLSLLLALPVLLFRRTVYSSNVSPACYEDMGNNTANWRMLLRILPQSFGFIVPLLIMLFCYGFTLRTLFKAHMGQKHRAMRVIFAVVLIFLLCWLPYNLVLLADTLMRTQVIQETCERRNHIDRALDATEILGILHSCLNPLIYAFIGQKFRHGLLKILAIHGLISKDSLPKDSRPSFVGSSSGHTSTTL
T3 sequence (P34981 whole entry): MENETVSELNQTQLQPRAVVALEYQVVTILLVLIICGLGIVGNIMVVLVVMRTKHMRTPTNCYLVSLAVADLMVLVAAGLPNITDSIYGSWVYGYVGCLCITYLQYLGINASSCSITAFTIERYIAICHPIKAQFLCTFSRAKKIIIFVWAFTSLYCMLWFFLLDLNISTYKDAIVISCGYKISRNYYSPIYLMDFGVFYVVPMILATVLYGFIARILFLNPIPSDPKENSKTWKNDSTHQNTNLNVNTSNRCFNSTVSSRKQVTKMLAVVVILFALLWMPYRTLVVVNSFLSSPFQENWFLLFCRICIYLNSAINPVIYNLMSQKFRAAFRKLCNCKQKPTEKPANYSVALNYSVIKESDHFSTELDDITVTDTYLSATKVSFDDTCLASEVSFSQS
T6 sequence (Q9Y271 whole entry, species assumed): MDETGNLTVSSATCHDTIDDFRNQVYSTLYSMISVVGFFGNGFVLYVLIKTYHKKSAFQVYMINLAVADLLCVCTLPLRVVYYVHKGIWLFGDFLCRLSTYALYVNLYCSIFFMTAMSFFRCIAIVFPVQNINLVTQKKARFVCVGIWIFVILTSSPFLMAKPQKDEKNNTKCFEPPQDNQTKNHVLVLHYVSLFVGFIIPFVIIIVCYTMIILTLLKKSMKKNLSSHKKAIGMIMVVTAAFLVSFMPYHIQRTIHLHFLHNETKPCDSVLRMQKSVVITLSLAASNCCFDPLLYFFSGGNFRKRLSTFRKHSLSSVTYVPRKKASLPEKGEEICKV
T8 sequence (Q8NFD2 whole entry): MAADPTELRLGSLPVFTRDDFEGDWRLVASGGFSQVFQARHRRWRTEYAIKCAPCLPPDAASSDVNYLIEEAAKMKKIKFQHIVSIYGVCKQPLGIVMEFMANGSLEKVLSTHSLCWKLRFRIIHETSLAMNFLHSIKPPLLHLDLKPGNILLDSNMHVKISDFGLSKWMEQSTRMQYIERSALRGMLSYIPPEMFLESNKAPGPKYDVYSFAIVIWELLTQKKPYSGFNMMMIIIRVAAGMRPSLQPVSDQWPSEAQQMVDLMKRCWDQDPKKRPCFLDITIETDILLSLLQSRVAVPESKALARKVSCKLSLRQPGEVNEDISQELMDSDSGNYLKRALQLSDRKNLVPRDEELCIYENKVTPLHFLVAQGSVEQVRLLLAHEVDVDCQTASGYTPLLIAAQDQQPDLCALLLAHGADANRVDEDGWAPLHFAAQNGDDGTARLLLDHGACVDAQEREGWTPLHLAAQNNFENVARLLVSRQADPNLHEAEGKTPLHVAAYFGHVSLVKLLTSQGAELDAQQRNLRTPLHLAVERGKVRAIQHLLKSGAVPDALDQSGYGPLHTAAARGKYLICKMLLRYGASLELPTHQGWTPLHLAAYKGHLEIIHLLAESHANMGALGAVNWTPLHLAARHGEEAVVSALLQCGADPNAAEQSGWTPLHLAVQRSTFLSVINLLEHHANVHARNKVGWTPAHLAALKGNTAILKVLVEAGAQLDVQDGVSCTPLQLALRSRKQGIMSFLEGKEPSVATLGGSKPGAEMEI
T9 sequence (P22455 22-802): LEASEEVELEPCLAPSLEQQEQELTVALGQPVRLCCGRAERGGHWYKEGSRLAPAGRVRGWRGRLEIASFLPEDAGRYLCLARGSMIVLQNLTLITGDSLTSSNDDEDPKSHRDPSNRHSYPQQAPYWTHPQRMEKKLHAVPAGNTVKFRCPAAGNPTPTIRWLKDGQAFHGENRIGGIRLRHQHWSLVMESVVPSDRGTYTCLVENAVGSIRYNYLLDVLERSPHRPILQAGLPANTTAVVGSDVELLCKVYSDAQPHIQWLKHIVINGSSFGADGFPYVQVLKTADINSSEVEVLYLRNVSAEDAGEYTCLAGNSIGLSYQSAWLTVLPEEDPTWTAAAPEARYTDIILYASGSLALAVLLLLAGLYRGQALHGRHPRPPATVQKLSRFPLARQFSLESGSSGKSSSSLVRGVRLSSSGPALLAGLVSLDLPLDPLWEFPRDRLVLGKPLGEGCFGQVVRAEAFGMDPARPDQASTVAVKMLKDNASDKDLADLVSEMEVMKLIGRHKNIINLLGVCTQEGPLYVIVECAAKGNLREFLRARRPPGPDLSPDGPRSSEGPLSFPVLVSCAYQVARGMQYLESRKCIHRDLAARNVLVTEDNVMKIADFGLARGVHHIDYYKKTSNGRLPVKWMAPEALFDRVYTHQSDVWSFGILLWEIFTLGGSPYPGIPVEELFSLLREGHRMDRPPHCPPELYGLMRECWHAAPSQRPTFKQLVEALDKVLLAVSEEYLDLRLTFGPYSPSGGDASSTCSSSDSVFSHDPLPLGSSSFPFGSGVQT
Sequence of Lpa1 (Q92633 whole entry, species assumed): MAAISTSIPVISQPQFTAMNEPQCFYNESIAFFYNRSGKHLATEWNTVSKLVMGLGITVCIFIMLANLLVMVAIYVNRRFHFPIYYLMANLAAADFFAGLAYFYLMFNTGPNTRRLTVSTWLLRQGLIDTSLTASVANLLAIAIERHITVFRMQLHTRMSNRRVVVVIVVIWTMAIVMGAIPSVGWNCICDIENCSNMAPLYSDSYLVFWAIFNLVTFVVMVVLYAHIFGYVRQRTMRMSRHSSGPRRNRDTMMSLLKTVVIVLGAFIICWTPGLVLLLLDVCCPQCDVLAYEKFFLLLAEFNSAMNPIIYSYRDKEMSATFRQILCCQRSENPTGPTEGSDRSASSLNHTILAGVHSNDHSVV
T10 sequence (Q9BRS2 whole entry): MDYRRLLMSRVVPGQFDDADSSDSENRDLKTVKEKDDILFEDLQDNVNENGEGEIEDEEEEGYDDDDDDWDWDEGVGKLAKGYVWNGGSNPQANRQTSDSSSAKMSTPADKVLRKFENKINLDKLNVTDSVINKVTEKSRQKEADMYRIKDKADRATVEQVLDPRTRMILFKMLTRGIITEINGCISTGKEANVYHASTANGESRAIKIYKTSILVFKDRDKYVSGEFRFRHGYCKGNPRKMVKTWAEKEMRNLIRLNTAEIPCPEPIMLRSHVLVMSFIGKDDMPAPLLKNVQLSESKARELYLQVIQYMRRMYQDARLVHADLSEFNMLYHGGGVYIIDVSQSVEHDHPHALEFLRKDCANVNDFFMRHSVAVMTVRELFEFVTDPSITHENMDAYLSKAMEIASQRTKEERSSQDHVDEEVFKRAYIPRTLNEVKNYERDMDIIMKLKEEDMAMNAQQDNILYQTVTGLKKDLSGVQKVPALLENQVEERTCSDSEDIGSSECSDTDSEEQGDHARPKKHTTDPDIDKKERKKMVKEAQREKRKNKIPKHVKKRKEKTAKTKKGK
T2 sequence (P27361 whole entry): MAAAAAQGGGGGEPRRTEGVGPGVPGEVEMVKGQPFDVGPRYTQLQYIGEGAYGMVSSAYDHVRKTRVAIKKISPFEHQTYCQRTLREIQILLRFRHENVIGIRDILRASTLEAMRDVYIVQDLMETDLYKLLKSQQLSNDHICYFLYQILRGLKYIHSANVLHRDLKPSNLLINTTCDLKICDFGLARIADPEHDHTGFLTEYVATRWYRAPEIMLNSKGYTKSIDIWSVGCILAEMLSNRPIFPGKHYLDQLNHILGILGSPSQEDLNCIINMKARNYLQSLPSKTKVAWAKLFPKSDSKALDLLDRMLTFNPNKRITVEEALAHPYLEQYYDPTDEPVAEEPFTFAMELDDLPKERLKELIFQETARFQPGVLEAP
T5 sequence (P42336 whole entry C420R): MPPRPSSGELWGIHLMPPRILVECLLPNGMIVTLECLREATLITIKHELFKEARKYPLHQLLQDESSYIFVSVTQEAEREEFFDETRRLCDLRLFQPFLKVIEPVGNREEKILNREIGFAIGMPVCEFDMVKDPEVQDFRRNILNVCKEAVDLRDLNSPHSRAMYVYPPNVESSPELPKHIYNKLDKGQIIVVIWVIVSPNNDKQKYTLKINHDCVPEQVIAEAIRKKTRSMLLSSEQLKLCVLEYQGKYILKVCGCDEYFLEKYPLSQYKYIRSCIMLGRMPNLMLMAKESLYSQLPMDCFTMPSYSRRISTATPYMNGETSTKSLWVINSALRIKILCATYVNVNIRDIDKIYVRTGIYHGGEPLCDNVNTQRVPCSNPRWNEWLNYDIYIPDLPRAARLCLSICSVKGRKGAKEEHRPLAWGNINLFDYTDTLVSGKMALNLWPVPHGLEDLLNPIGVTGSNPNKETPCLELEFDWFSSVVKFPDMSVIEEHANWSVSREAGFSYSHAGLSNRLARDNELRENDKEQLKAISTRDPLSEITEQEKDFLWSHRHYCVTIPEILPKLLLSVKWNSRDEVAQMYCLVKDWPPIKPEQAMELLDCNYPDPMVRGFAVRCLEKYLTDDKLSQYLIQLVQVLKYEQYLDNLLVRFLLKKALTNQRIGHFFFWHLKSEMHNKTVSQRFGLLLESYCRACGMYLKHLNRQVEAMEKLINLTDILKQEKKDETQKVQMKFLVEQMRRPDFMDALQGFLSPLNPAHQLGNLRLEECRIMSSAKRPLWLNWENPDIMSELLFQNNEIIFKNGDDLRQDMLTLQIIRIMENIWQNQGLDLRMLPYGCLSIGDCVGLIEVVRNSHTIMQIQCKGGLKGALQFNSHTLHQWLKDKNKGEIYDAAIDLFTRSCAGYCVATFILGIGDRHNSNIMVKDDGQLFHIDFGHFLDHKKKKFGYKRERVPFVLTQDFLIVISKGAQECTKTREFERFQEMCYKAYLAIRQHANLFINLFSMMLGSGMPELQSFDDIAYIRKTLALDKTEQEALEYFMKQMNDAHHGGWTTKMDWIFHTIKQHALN

Question: For `CCc1ccc2c(c1)C1(NN=C(c3ccccc3)S1)C(=O)N2` (centres unmarked) [OGM2], which Class (Panc02) is on record?
Answer: Its Class is “Sensitive (Sensitive (LC50=2 to 10 μM))”.

Question: What about the “% Survival 2 μM OGM” value (Panc02; 72 hours) of the same molecule?
Answer: Its value is 72.5%.

Question: What about the “% Survival 10 μM OGM” value (Panc02; 72 hours) of the same molecule?
Answer: The value was 40.5%.

Question: And the CC50 (Panc02; Mus musculus, Panc02, 72 hours, read-out: LC50 (the source's name))?
Answer: The CC50 was 2 to 10 µM.

Question: And the Class (BxPC-3)?
Answer: The Class was “Mildly”.

Question: What about the “% Survival 2 μM OGM” value (BxPC-3; 72 hours) of the same molecule?
Answer: The value was 81.5%.

Question: And the “% Survival 10 μM OGM” value (BxPC-3; 72 hours)?
Answer: The value was 83.8%.

Question: And the CC50 (BxPC-3; Homo sapiens, BXPC-3, 72 hours, read-out: LC50 (the source's name))?
Answer: Its CC50 is greater than 10 µM.

Question: What about the “lung vascular leak (Evans blue-labeled albumin)” value (HKSA-induced ALI; 3 hr post administration) of the same molecule?
Answer: The value was “significantly attenuated”.

Question: And the “inflammatory cytokine (TNFα, IL-6, KC, IL-1β) transcripts in the lungs” value (HKSA-induced ALI; i.p.)?
Answer: The value was “significantly attenuated induction”.

Question: For `CCc1ccc2c(c1)C1(NN=C(c3cccc4ccccc34)S1)C(=O)N2` (centres unmarked) [OGM1, 5-ethyl-5′-naphthalen-1-ylspiro[1H-indole-3,2′-3H-1,3,4-thiadiazole]-2-one], which IC50 (Lpa1) is on record?
Answer: The IC50 was 8.7 µM.

Question: And the remaining binding at 10 µM (EGFR(G719C))?
Answer: Its remaining binding at 10 µM is 100%.

Question: And the remaining binding at 10 µM (ERK1)?
Answer: The remaining binding at 10 µM was 100%.

Question: And the Antagonism (TRH; 10 uM)?
Answer: The Antagonism was 1.4.

Question: And the Agonism (TRH; 12.5 uM)?
Answer: The Agonism was 0.1.

Question: And the remaining binding at 10 µM [1]?
Answer: The remaining binding at 10 µM was 72%.

Question: What about the remaining binding at 10 µM (PIK3CA(C420R)) of the same molecule?
Answer: The remaining binding at 10 µM was 100%.

Question: And the Antagonism (CysLT1; 10 uM)?
Answer: The Antagonism was −2.4.

Question: And the Agonism (CysLT1; 12.5 uM)?
Answer: The Agonism was 0.8.

Question: What about the remaining binding at 10 µM (FGFR3(G697C)) of the same molecule?
Answer: Its remaining binding at 10 µM is 99%.

Question: What about the remaining binding at 10 µM (ANKK1) of the same molecule?
Answer: Its remaining binding at 10 µM is 100%.

Question: What about the remaining binding at 10 µM (FGFR4) of the same molecule?
Answer: The remaining binding at 10 µM was 100%.

Question: What about the remaining binding at 10 µM (RIOK1) of the same molecule?
Answer: Its remaining binding at 10 µM is 100%.

Question: And the Antagonism (CXCR2; 10 uM)?
Answer: The Antagonism was −3.1.

Question: And the Agonism (CXCR2; 12.5 uM)?
Answer: The Agonism was 0.5.

Question: What about the remaining binding at 10 µM (MET) of the same molecule?
Answer: The remaining binding at 10 µM was 100%.

Source: patent US20240327364A1, “THERAPEUTIC TARGETING OF GPR68 TO INDUCE FERROPTOSIS” (University Of Maryland, Baltimore, priority 2023, published 2024)
